Assay: in vitro
Assay type: in vitro ADME, Canine
Settings: dog, MDCK
Procedure: Cells used: MDCK (Madin-Darby Canine Kidney) cells, ATCC collection # CCL-34, are used to model the intestinal barrier. Cell culture conditions: cells were cultured at 37° C. in a 5% CO2 environment and split twice a week on seeding at 4×10^5 cells/flask (75 cm^2) on day 1 and 2×10^5 cells/flask on day 4. The culture medium consisted of MEM+Earle's-L Glutamine (Gibco #21090-022) supplemented with 10% Australian Fetal Calf Serum (Sigma #F6178), 2 mM L-Glutamine (Gibco #25030-024) and 1× Non Essential Amino Acids (Gibco #11140-035)
On day 1, a 24-well plate (Sarstedt, #83.1836.300) was filled with individual 3 lam pore membrane inserts (Millipore, #PITP 012 50). Each plate allows the testing of a cocktail of 3 control compounds and 11 test compounds in duplicate. The wells (outside the inserts) were filled with 500 μl of culture medium.
A flask of cells was trypsinised and a cell count carried out. Cells were diluted to 1.2×10^5 cells/ml (1×10^5 cells/cm^2) and 500 μl dispensed in each insert on the 24-well plate. The plate was incubated at 37° C. in a 5% CO2 environment for 48 hours.
On day 3, the culture medium was removed from the wells, then the inserts and is replaced with fresh culture medium in the wells, then the inserts (500111 per well and insert) The plate was incubated at 37° C. in a 5% CO2 environment for 24 hours.
On day 4, the controls cocktail and test compounds solutions were made up in HBSS buffer (Hank's Balanced Salt Solution, Gibco #14025-050) at 1011M. The final controls and test compounds concentration in the assay was 10 μM, and DMSO concentration maintained at 0.1% (0.3% for the controls cocktail). The controls cocktail was made up of Atenolol (Sigma # A-7655), Dexamethasone (Sigma #D-1756) and Propranolol (Sigma # P-0884).
A 24-well plate was filled with 500 μl of HBSS buffer per well (assay plate) The culture medium was removed from the wells and inserts. The inserts were washed three times with approximately 500 μl of HBSS buffer. The inserts were transferred to the assay plate. Controls cocktail and test compounds solutions were dispensed inside the inserts (500 μl per insert), in duplicates. The assay plate was incubated at 37° C. in a 5% CO2 environment for 2 hours.
After 2 hours, the inserts were removed from the assay plate and transferred into a new 24-well plate (wash plate) The assay plate containing the receiver solutions was left aside for later sampling. To measure the mass balance, 150 μl were sampled from each insert (donor solutions) and dispensed into 150 μl of HPLC-grade Acetonitrile (Fisher Scientific) containing an internal standard and 0.05% formic acid.
The donor solutions were aspirated and discarded from each insert, and the inserts washed once with approximately 500 μl of HBSS buffer. A 24-well plate was filled with 500 μl of HBSS buffer per well (monolayer integrity plate) A Lucifer Yellow (Sigma #L0144) solution was made up at 1001.1M in HBSS buffer. The empty inserts were transferred into the monolayer integrity plate and filled with 500 μl of the Lucifer Yellow solution to determine the cell monolayers integrity and leftover of the solution was kept in a fridge. The plate was incubated at 37° C. in a 5% CO2 environment for 2 hours.
In the meantime, 150 μl were sampled from the assay plate (receiver solutions) and dispensed into 150 μl of HPLC-grade Acetonitrile containing an internal standard and 0.05% formic acid. A calibration curve was made for each mix of compounds (as appropriate depending on compounds molecular weights) A 10 μM mix of compounds in HBSS buffer was diluted 1:1 in HPLC-grade Acetonitrile containing an internal standard and 0.05% formic acid. A 1:1 mix of HBSS buffer and HPLC-grade Acetonitrile containing an internal standard and 0.05% formic acid was made up and used to make up the calibration curve (2 fold dilutions), with concentrations ranging from 10 μM to 0.078 μM. […]

Row | Compound | Papp at 2 h, 10 µM
1 | CC(C)(C)OC(=O)N[C@@H](C(=O)N1CCC[C@H]1c1ncc(-c2ccc(-c3ccc(C(=O)Nc4ccc(CN5CCS(=O)(=O)CC5)cc4)cc3)cc2)[nH]1)c1ccccc1 [Example 2, Tert-butyl N-[(1R)-2-[(2S)-2-[5-[4-[4-[[4-[(1,1-dioxo-1,4-thiazinan-4-yl)methyl]phenyl]carbamoyl]phenyl]phenyl]-1H-imidazol-2-yl]pyrrolidin-1-yl]-2-oxo-1-phenyl-ethyl]carbamate] | 2 nm/s
2 | COC(=O)N[C@H](C(=O)N1CCC[C@@H]1c1ncc(-c2ccc(-c3ccc(C(=O)Nc4ccc(CN5CCS(=O)(=O)CC5)cc4)cc3)cc2)[nH]1)C(C)C [Example 20, Methyl N-[(1S)-1-[(2R)-2-[5-[4-[4-[[4-[(1,1-dioxo-1,4-thiazinan-4-yl)methyl]phenyl]carbamoyl]phenyl]phenyl]-1H-imidazol-2-yl]pyrrolidine-1-carbonyl]-2-methyl-propyl]carbamate] | 4 nm/s
3 | CCN(CC)[C@@H](C(=O)N1CCC[C@H]1c1ncc(-c2ccc(-c3ccc(C(=O)Nc4ccc(CN5CCS(=O)(=O)CC5)cc4)cc3)cc2)[nH]1)c1ccccc1 [Example 8, 4-[4-[2-[(2S)-1-[(2R)-2-(diethylamino)-2-phenyl-acetyl]pyrrolidin-2-yl]-1H-imidazol-5-yl]phenyl]-N-[4-[(1,1-dioxo-1,4-thiazinan-4-yl)methyl]phenyl]benzamide] | 12 nm/s
4 | COC(=O)N[C@H](C(=O)N1CCC[C@H]1c1ncc(-c2ccc(-c3ccc(C(=O)Nc4ccc(CN5CCS(=O)(=O)CC5)cc4)cc3)cc2)[nH]1)c1ccccc1 [Example 6, Methyl N-[(1S)-2-[(2S)-2-[5-[4-[4-[[4-[(1,1-dioxo-1,4-thiazinan-4-yl)methyl]phenyl]carbamoyl]phenyl]phenyl]-1H-imidazol-2-yl]pyrrolidin-1-yl]-2-oxo-1-phenyl-ethyl]carbamate] | 1 nm/s
5 | CC[C@H](C)[C@H](NC(=O)OC)C(=O)N1CCC[C@H]1c1ncc(-c2ccc(-c3ccc(C(=O)Nc4ccc(CN5CCS(=O)(=O)CC5)cc4)cc3)cc2)[nH]1 [Example 16, Methyl N-[(1S,2S)-1-[(2S)-2-[5-[4-[4-[[4-[(1,1-dioxo-1,4-thiazinan-4-yl)methyl]phenyl]carbamoyl]phenyl]phenyl]-1H-imidazol-2-yl]pyrrolidine-1-carbonyl]-2-methyl-butyl]carbamate] | 10 nm/s
6 | CN(C)[C@@H](C(=O)N1CCC[C@H]1c1ncc(-c2ccc(-c3ccc(C(=O)Nc4ccc(CN5CCS(=O)(=O)CC5)cc4)cc3)cc2)[nH]1)c1ccccc1 [Example 9, 4-[4-[2-[(2S)-1-[(2R)-2-(dimethylamino)-2-phenyl-acetyl]pyrrolidin-2-yl]-1H-imidazol-5-yl]phenyl]-N-[4-[(1,1-dioxo-1,4-thiazinan-4-yl)methyl]phenyl]benzamide] | 9 nm/s
7 | COC(=O)N[C@H](C(=O)N1CCC[C@H]1c1ncc(-c2ccc(-c3ccc(C(=O)Nc4ccc(CN5CCS(=O)(=O)CC5)cc4)cc3)cc2)[nH]1)C(C)C [Example 3, Methyl N-[(1S)-1-[(2S)-2-[5-[4-[4-[[4-[(1,1-dioxo-1,4-thiazinan-4-yl)methyl]phenyl]carbamoyl]phenyl]phenyl]-1H-imidazol-2-yl]pyrrolidine-1-carbonyl]-2-methyl-propyl]carbamate] | 41 nm/s
8 | CCCS(=O)(=O)N1CCN(Cc2ccc(NC(=O)c3ccc(-c4ccc(-c5cnc([C@@H]6CCCN6C(=O)[C@@H](NC(=O)OC)C(C)C)[nH]5)cc4)cc3)cc2)CC1 [Example 40, Methyl N-[(1S)-2-methyl-1-[(2S)-2-[5-[4-[4-[[4-[(4-propylsulfonylpiperazin-1-yl)methyl]phenyl]carbamoyl]phenyl]phenyl]-1H-imidazol-2-yl]pyrrolidine-1-carbonyl]propyl]carbamate] | 7 nm/s
9 | COC(=O)N[C@H](C(=O)N1CCC[C@H]1c1ncc(-c2ccc(-c3ccc(C(=O)Nc4ccc(CN5CCS(=O)(=O)CC5)cc4)cc3)cc2)[nH]1)C(C)(C)C [Example 5, Methyl N-[(1S)-1-[(2S)-2-[5-[4-[4-[[4-[(1,1-dioxo-1,4-thiazinan-4-yl)methyl]phenyl]carbamoyl]phenyl]phenyl]-1H-imidazol-2-yl]pyrrolidine-1-carbonyl]-2,2-dimethyl-propyl]carbamate] | 20 nm/s
10 | COC(=O)N[C@@H](CC(C)C)C(=O)N1CCC[C@H]1c1ncc(-c2ccc(-c3ccc(C(=O)Nc4ccc(CN5CCS(=O)(=O)CC5)cc4)cc3)cc2)[nH]1 [Example 14, Methyl N-[(1S)-1-[(2S)-2-[5-[4-[4-[[4-[(1,1-dioxo-1,4-thiazinan-4-yl)methyl]phenyl]carbamoyl]phenyl]phenyl]-1H-imidazol-2-yl]pyrrolidine-1-carbonyl]-3-methyl-butyl]carbamate] | 12 nm/s
11 | COC(=O)N[C@@H](C(=O)N1CCC[C@H]1c1ncc(-c2ccc(-c3ccc(C(=O)Nc4ccc(CN5CCS(=O)(=O)CC5)cc4)cc3)cc2)[nH]1)c1ccccc1 [Example 7, Methyl N-[(1R)-2-[(2S)-2-[5-[4-[4-[[4-[(1,1-dioxo-1,4-thiazinan-4-yl)methyl]phenyl]carbamoyl]phenyl]phenyl]-1H-imidazol-2-yl]pyrrolidin-1-yl]-2-oxo-1-phenyl-ethyl]carbamate] | 4 nm/s
12 | COC(=O)N[C@H](C(=O)N1CCC[C@H]1c1ncc(-c2ccc(-c3ccc(C(=O)Nc4ccc(CN5CCS(=O)(=O)CC5)cc4)cc3)c(C)c2)[nH]1)C(C)C [Example 54, Methyl N-[(1S)-1-[(2S)-2-[5-[4-[4-[[4-[(1,1-dioxo-1,4-thiazinan-4-yl)methyl]phenyl]carbamoyl]phenyl]-3-methyl-phenyl]-1H-imidazol-2-yl]pyrrolidine-1-carbonyl]-2-methyl-propyl]carbamate] | 60 nm/s
13 | COC(=O)N[C@H](C(=O)N1CCOC[C@H]1c1ncc(-c2ccc(-c3ccc(C(=O)Nc4ccc(CN5CCS(=O)(=O)CC5)cc4)cc3)cc2)[nH]1)c1ccccc1 [Example 47, Methyl N-[(1S)-2-[(3R)-3-[5-[4-[4-[[4-[(1,1-dioxo-1,4-thiazinan-4-yl)methyl]phenyl]carbamoyl]phenyl]phenyl]-1H-imidazol-2-yl]morpholin-4-yl]-2-oxo-1-phenyl-ethyl]carbamate] | 1 nm/s

— patent US20100215618A1, “NOVEL COMPOUNDS - 644” (Arrow Therapeutics Limited, priority 2009, published 2010)
